In patent US10899758B2, “Inhibitors of the menin-MLL interaction” (Vitae Pharmaceuticals, LLC, priority 2016, dated 2021):

Columns and labels:
[1] = test system: human acute monocytic leukemia cell line MV-4-11; assay: Assay 2 (Cell Proliferation Assay), ATP quantitation (CellTiter-Glo); assay type: cell-based; settings: Homo sapiens, MV4-11, 72 h, MV-4-11 cells, read-out: Assay 2 (EC50, inhibition of cell proliferation)
Method in brief: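 Cells (1.67×10^4/well, 10% FBS medium) incubated ±compound 72 h at 37 °C, 5% CO2; HL-60 served as toxicity control. ATP read by CellTiter-Glo luminescence; % inhibition scaled between DMSO and a potent menin inhibitor at ≥100×LD50.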

[2] = target: T1, menin/MLL binding (biotinylated wild-type or mutated menin and MLL-AF9 fusion protein) (Homo sapiens, UniProt O00255); assay: Assay 1 (Binding Assay): AlphaLISA menin/MLL binding; settings: 5 nM biotinylated menin, MLL-AF9-FLAG lysate
T1 construct: biotinylated (1) wild-type menin or (2) mutated menin (described in Nature (2012) Vol. 482, pp. 542-548); fused on or other part: Biotin attached chemically (Sulfo-NHS-Biotin); no fused second protein is printed for menin
T1 sequence (O00255 1-459 limits assumed): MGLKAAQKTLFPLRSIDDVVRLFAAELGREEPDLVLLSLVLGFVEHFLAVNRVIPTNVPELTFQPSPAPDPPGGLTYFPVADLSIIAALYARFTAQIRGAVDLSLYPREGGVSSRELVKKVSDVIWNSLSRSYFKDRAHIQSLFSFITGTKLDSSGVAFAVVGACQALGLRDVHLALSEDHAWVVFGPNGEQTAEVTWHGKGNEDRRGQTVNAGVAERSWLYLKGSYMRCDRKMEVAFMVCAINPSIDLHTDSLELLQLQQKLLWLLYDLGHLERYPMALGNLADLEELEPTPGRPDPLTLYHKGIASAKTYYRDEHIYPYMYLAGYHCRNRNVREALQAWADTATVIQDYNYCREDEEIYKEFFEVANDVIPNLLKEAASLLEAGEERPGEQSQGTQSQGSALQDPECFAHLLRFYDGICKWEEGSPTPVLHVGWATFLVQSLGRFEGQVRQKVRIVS
Method in brief: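 Biotinylated E. coli-expressed menin (wild-type or mutant), 5 nM, incubated 30 min RT with compound and HEK293 lysate of MLL1-1,396–AF9-FLAG in pH 7.4 Tris buffer, 5% DMSO, 1 mM DTT. Anti-FLAG acceptor and streptavidin donor beads added, 60 min RT, AlphaLISA signal read. IC50 from four-parameter fit of % inhibition.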

| Compound | EC50 [1] [nM] | IC50 [2] [nM] |
| --- | --- | --- |
| CCN(C(=O)c1cc(F)ccc1-n1cc(C2CCCN(Cc3ccc4[nH]c(=O)[nH]c4c3)C2)c2ccncc21)C(C)C (stereo not drawn) [Example 47, N-ethyl-5-fluoro-N-isopropyl-2-(3-(1-((2-oxo-2,3-dihydro-1H-benzo[d]imidazol-5-yl)methyl)piperidin-3-yl)-1H-pyrrolo[2,3-c]pyridin-1-yl)benzamide] | < 100 | < 100 |
| CCN(C(=O)c1cc(F)ccc1-n1cc(C2CCCN(Cc3ccc4c(c3)[nH]c(=O)n4CCO)C2)c2ccncc21)C(C)C (stereo not drawn) [Example 49, N-ethyl-5-fluoro-2-(3-(1-((1-(2-hydroxyethyl)-2-oxo-2,3-dihydro-1H-benzo[d]imidazol-5-yl)methyl)piperidin-3-yl)-1H-pyrrolo[2,3-c]pyridin-1-yl)-N-isopropylbenzamide] | < 100 | < 100 |
| CCN(C(=O)c1cc(F)ccc1-n1cc([C@@H]2CCCN(Cc3ccc4c(c3)[nH]c(=O)n4CCO)C2)c2ccncc21)C(C)C [Example 49A, (S)-N-ethyl-5-fluoro-2-(3-(1-((1-(2-hydroxyethyl)-2-oxo-2,3-dihydro-1H-benzo[d]imidazol-5-yl)methyl)piperidin-3-yl)-1H-pyrrolo[2,3-c]pyridin-1-yl)-N-isopropylbenzamide] | < 100 | < 100 |
| CCN(C(=O)c1cc(F)ccc1-n1cc([C@H]2CCCN(Cc3ccc4c(c3)[nH]c(=O)n4CCO)C2)c2ccncc21)C(C)C [Example 49B, (R)-N-ethyl-5-fluoro-2-(3-(1-((1-(2-hydroxyethyl)-2-oxo-2,3-dihydro-1H-benzo[d]imidazol-5-yl)methyl)piperidin-3-yl)-1H-pyrrolo[2,3-c]pyridin-1-yl)-N-isopropylbenzamide] | < 100 | < 100 |
| CC(C)N(C)C(=O)c1cc(F)ccc1-n1cc([C@H]2CC[C@H](N3CCCC3)CC2)c2ccncc21 [Example 55, 5-fluoro-N-isopropyl-N-methyl-2-(3-(trans-4-(pyrrolidin-1-yl)cyclohexyl)-1H-pyrrolo[2,3-c]pyridin-1-yl)benzamide] | 100 to 1000 | < 100 |
| CC(C)N(C)C(=O)c1cc(F)ccc1-n1cc([C@H]2CC[C@@H](N3CCCC3)CC2)c2ccncc21 [Example 56, 5-fluoro-N-isopropyl-N-methyl-2-(3-(cis-4-(pyrrolidin-1-yl)cyclohexyl)-1H-pyrrolo[2,3-c]pyridin-1-yl)benzamide] | 100 to 1000 | < 100 |
| CC(C)N(C)C(=O)c1cc(F)ccc1-n1cc([C@H]2CC[C@H](N)CC2)c2ccncc21 [Example 57, 2-(3-(trans-4-aminocyclohexyl)-1H-pyrrolo[2,3-c]pyridin-1-yl)-5-fluoro-N-isopropyl-N-methylbenzamide] | ≥ 1000 | < 100 |
| CC(C)N(C)C(=O)c1cc(F)ccc1-n1cc([C@H]2CC[C@@H](N)CC2)c2ccncc21 [Example 58, 2-(3-(cis-4-aminocyclohexyl)-1H-pyrrolo[2,3-c]pyridin-1-yl)-5-fluoro-N-isopropyl-N-methylbenzamide] | ≥ 1000 | 100 to 1000 |
| Cc1c(CN2CCC(c3cn(-c4ccc(F)cc4C(=O)N(C)C(C)C)c4cncnc34)CC2)ccc2[nH]c(C#N)cc12 [Example 63, 2-(7-(1-((2-cyano-4-methyl-1H-indol-5-yl)methyl)piperidin-4-yl)-5H-pyrrolo[3,2-d]pyrimidin-5-yl)-5-fluoro-N-isopropyl-N-methylbenzamide] | < 100 | < 100 |
| CC(C)N(C)C(=O)c1cc(F)ccc1-c1cn(C2CCCN(Cc3ccc4[nH]c(=O)[nH]c4c3)C2)c2ccncc12 (stereo not drawn) [Example 74, 5-fluoro-N-isopropyl-N-methyl-2-(1-(1-((2-oxo-2,3-dihydro-1H-benzo[d]imidazol-5-yl)methyl)piperidin-3-yl)-1H-pyrrolo[3,2-c]pyridin-3-yl)benzamide] | ≥ 1000 | < 100 |
| CC(C)N(C)C(=O)c1cc(F)ccc1-n1c(=O)n(C2CCN(CC[C@H]3CC[C@H](NS(C)(=O)=O)CC3)CC2)c2ccncc21 [Example 78, 5-fluoro-N-isopropyl-N-methyl-2-(1-(1-(2-((1r,4r)-4-(methylsulfonamido)cyclohexyl)ethyl)piperidin-4-yl)-2-oxo-1,2-dihydro-3H-imidazo[4,5-c]pyridin-3-yl)benzamide] | 100 to 1000 | < 100 |
| Cc1c(CN2CCC(n3c(=O)n(-c4ccc(F)cc4)c4cnccc43)CC2)ccc2[nH]c(C#N)cc12 [Example 80, 5-((4-(3-(4-fluorophenyl)-2-oxo-2,3-dihydro-1H-imidazo[4,5-c]pyridin-1-yl)piperidin-1-yl)methyl)-4-methyl-1H-indole-2-carbonitrile] | ≥ 1000 | < 100 |
| Cc1c(CN2CCC(n3c(=O)n(-c4ccc(F)cc4C(=O)N(C)C(C)C)c4cnccc43)CC2)ccc2[nH]c(C#N)cc12 [Example 82, 2-(1-(1-((2-cyano-4-methyl-1H-indol-5-yl)methyl)piperidin-4-yl)-2-oxo-1,2-dihydro-3H-imidazo[4,5-c]pyridin-3-yl)-5-fluoro-N-isopropyl-N-methylbenzamide] | < 100 | < 100 |
| CC(C)N(C(=O)c1cc(F)ccc1-n1cc(C2CCCN(Cc3ccc4c(c3)[nH]c(=O)n4CCO)C2)c2ccncc21)C(C)C (stereo not drawn) [Example 84, 5-fluoro-2-(3-(1-((1-(2-hydroxyethyl)-2-oxo-2,3-dihydro-1H-benzo[d]imidazol-5-yl)methyl)piperidin-3-yl)-1H-pyrrolo[2,3-c]pyridin-1-yl)-N,N-diisopropylbenzamide] | < 100 | < 100 |
| CC(C)N(C(=O)c1cc(F)ccc1-n1cc(C2CCCN(Cc3ccc4[nH]c(=O)[nH]c4c3)C2)c2ccncc21)C(C)C (stereo not drawn) [Example 84A, 5-fluoro-N,N-diisopropyl-2-(3-(1-((2-oxo-2,3-dihydro-1H-benzo[d]imidazol-5-yl)methyl)piperidin-3-yl)-1H-pyrrolo[2,3-c]pyridin-1-yl)benzamide] | < 100 | < 100 |
| CC(=O)OCCn1c(=O)[nH]c2cc(CN3CCC[C@H](c4cn(-c5ccc(F)cc5C(=O)N(C)C(C)C)c5cnccc45)C3)ccc21 [Example 85, (R)-2-(5-((3-(1-(4-fluoro-2-(isopropyl(methyl)carbamoyl)phenyl)-1H-pyrrolo[2,3-c]pyridin-3-yl)piperidin-1-yl)methyl)-2-oxo-2,3-dihydro-1H-benzo[d]imidazol-1-yl)ethyl acetate] | < 100 | < 100 |
| CCCCCCCCCCCCCCCCCC(=O)OCCn1c(=O)[nH]c2cc(CN3CCC[C@H](c4cn(-c5ccc(F)cc5C(=O)N(C)C(C)C)c5cnccc45)C3)ccc21 [Example 86, (R)-2-(5-((3-(1-(4-fluoro-2-(isopropyl(methyl)carbamoyl)phenyl)-1H-pyrrolo[2,3-c]pyridin-3-yl)piperidin-1-yl)methyl)-2-oxo-2,3-dihydro-1H-benzo[d]imidazol-1-yl)ethyl stearate] | < 100 | < 100 |
| CC(C)N(C(=O)c1cc(F)ccc1-n1cc(C2CCCN(C[C@H]3CC[C@H](NS(C)(=O)=O)CC3)C2)c2ccncc21)C(C)C (stereo partly drawn) [Example 87, 5-fluoro-N,N-diisopropyl-2-(3-(1-(((1r,4r)-4-(methylsulfonamido)cyclohexyl)methyl)piperidin-3-yl)-1H-pyrrolo[2,3-c]pyridin-1-yl)benzamide] | < 100 | < 100 |
